According to patent publication US10052346B2, “Treatment of myelodysplastic syndromes with 2-O and,or 3-O desulfated heparinoids” (Cantex Pharmaceuticals, Inc., priority 2015, dated 2018):
Entries after “also recorded” stand apart in the source; their conditions may differ.

Key:
ovarian cancer = settings: with standard chemotherapy regimen; cited from earlier work
[1] = tested on: advanced pancreatic cancer; settings: dalteparin added to gemcitabine; cited from earlier work
[2] = tested on: acute myeloid leukemia (AML); experiment: single arm open-label clinical study of ODSH with idarubicin + cytarabine induction (NCT02056782); type: in vivo, human
Protocol: A single arm open-label clinical study was conducted at multiple trial sites (University of Utah, Georgia Regents University, and Medical University of South Carolina) in patients with newly diagnosed acute myeloid leukemia (AML) to confirm that ODSH could accelerate platelet and white blood cell (WBC) recovery in patients receiving induction chemotherapy with a regimen known to have myelosuppressive side effects.
All patients received the following standard (“7+3”) induction regimen, • Idarubicin (12 mg/m^2/day) by short intravenous infusion on Days 1, 2, and 3; and • Cytarabine (100 mg/m^2) as a continuous intravenous infusion over 24 hours (Days 1 through 7).
All patients also received CX-01, a substantially 2-O, 3-O-desulfated heparin derivative (ODSH) as an intravenous bolus immediately after the idarubicin dose on Day 1, at a dose of 4 mg/kg, followed by a continuous intravenous infusion at a dose of 0.25 mg/kg/hr for a total of 7 days (Days 1 through 7).
Twelve patients were enrolled. The median age was 56 (range 22-74). Based on cytogenetic, molecular, or antecedent hematologic disorder, 9 of 12 patients fell into the intermediate or poor risk categories. […] Complete remission at the end of the induction cycle was assessed using International Working Group (IWG) criteria (see, e.g., Cheson et al., J. Clin. Oncol. 21:4642 (2003)).
Platelet, neutrophil, and WBC recovery of the ODSH-treated AML patients was compared with the recovery in historical control patients receiving identical doses of idarubicin and cytarabine as induction therapy in a previous clinical study comparing idarubicin and daunorubicin in combination with cytarabine (Vogler et al., J. Clin. Oncol. 10(7):1103-11(1992)). In the previous study, 101 patients received idarubicin 12 mg/m^2 on days 1, 2, and 3 and cytarabine 100 mg/m^2 on days 1-7. Growth factors were not administered to any patient.

[3] = stability testing of CX-01 infusion solutions; type: physicochemical; settings: room temperature; diluted in 0.9% sodium chloride
Protocol: Based upon current stability testing data, CX-01 infusion solutions expire at room temperature 72 hours after preparation and should be stored in a refrigerator (2 to 8° C.) until used.

[4] = tested on: metastatic adenocarcinoma of the pancreas; settings: cited from earlier work
bone marrow = experiment: serial bone marrow biopsies in the AML trial; type: in vivo, human; settings: one patient treated with ODSH, cytarabine and idarubicin; for bone marrow biopsy appearance at Day 14 of the induction cycle: FIG. 2B; for bone marrow biopsy appearance at Day 28: FIG. 2C
Source text: Bone marrow biopsies were obtained in the AML, trial described in Example 1.
FIGS. 2A-2C are photomicrographs of biopsies from one of the patients.

anti-thrombin III = anti-thrombin III (Homo sapiens, UniProt P01008); experiment: affinity for anti-thrombin III; type: binding; settings: for Kd: measured as described in Rao et al.; for Kd for anti-thrombin III: same Kd as mass concentration
Sequence of anti-thrombin III (P01008 33-464, species assumed): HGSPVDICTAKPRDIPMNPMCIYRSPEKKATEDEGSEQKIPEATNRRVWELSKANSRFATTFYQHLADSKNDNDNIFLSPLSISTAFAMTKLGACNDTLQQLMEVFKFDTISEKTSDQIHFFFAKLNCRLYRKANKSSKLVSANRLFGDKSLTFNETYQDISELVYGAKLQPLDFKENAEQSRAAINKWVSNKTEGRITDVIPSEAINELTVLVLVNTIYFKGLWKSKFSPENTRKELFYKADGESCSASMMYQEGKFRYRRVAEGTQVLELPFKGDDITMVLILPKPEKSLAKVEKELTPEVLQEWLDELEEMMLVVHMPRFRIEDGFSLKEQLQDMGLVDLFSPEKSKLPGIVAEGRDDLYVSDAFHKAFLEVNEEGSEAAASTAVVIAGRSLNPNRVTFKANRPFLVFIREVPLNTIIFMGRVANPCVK

[5] = clotting time in an aPTT assay after administration to a subject; type: in vivo; settings: ODSH at a dose equivalent in weight to a fully-anticoagulating dose of unfractionated heparin; UFH at fully anticoagulant dose; normal about 27 to 35 seconds
Source text: In contrast to unfractionated heparin, ODSH is substantially non-anticoagulating: administered to a subject at a dose that is equivalent in weight to a fully-anticoagulating dose of unfractionated heparin, the clotting time measured in an aPTT assay is no greater than 45 seconds, and typically in the upper range of normal, where normal clotting time ranges from about 27 to 35 seconds. By comparison, unfractionated heparin administered to a subject at a fully anticoagulant dose causes time to clot to range from about 60 to about 85 seconds in an aPTT assay.

human pancreatic cancer = settings: regimen that includes gemcitabine; cited from earlier work
[6] = tested on: advanced prostate, lung, or pancreatic cancer; settings: added to existing standard of care protocols; cited from earlier work
pancreatic cancer model = settings: in vivo; cited from earlier work
Xa = target: T1, Xa (Homo sapiens, UniProt P00742); settings: comparator heparin; Rao et al.; cited from earlier work
T1 construct: an assay carried out using plasma treated with Russell viper venom; from tissue; host or cells: plasma
T1 sequence (P01008 33-464 partner): as the sequence (P01008 33-464, species assumed) above
T1 sequence (P00742 235-488 limits assumed): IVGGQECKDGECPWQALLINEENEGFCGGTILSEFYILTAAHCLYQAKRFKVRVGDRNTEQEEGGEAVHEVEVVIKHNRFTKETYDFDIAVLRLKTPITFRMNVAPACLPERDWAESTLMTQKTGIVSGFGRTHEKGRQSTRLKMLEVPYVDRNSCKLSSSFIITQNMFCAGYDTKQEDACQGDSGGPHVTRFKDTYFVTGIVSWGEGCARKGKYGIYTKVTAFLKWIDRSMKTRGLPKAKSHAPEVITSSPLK

IIa = IIa (Homo sapiens, UniProt P00734+P01008); settings: comparator heparin; Rao et al.; cited from earlier work
[7] = comparator heparin; Rao et al.; cited from earlier work
[8] = median follow-up of 14.2 months
[9] = ODSH added to gemcitabine plus nab-paclitaxel

dalteparin
outcome (ovarian cancer): could not be shown to improve outcome | survival [1]: no statistically significant improvement in survival

substantially 2-O, 3-O desulfated heparin [ODSH]
patients remaining in complete remission ([2]; 5-13 months after having been enrolled in the study): 10 of the 12 | patients with primary AML achieving complete remission at the end of a single induction cycle ([2]; 11 patients with primary AML): 11 | myelosuppressive side effects of the idarubicin+cytarabine regimen ([2]; AML patients): significantly attenuated the myelosuppressive side effects | Complete response with first induction cycle (morphologic complete remission, IWG criteria) ([2]; AML patients, n = 12, 11 out of 12): 92% | median OS [2, 8]: ≥ 13.6 months | median event free survival [2, 8]: 13.5 months | median time to relapse ([2]; six patients who relapsed): 8 months | expiry of infusion solutions after preparation [3]: 72 h | overall survival [4, 9]: did not provide a statistically significant increase; also recorded: no statistically significant benefit | progression-free survival [4, 9]: did not provide a statistically significant increase; also recorded: no statistically significant benefit | myelosuppressive side effects of the gemcitabine plus nab-paclitaxel regimen ([4]; U.S. Pat. No. 8,734,804): attenuate the myelosuppressive side effects | bone marrow biopsy appearance at Day 14 of the induction cycle (bone marrow): elimination of most normal bone marrow cells as well as leukemia cells | bone marrow biopsy appearance at Day 14 of the induction cycle (bone marrow; listed as CX-01 ODSH): significant depletion of normal bone marrow cells | bone marrow biopsy appearance at Day 28 (bone marrow): no evidence of leukemic cells and restoration of normal bone marrow appearance and function | bone marrow biopsy appearance at Day 28 (bone marrow; listed as CX-01 ODSH): no evidence of leukemia and restoration of normal bone marrow appearance and function | Kd (anti-thrombin III): ~339 µM | Kd for anti-thrombin III (anti-thrombin III): ~4000 µg/mL | clotting time measured in an aPTT assay [5]: ≤ 45 s | efficacy of chemotherapy regimen in animal model (human pancreatic cancer): improves the efficacy of a chemotherapy regimen; also recorded: sensitize cancer cells to chemotherapy

nadroparin
survival benefit [6]: no statistically significant survival benefit

unfractionated heparin
potency of gemcitabine (pancreatic cancer model): enhances potency of gemcitabine | anti-Xa activity (Xa): 165-190 U/mg | anti-IIa activity (IIa): 165-190 U/mg | anticoagulant activity in the USP anticoagulant assay [7]: 165-190 U/mg | Kd (anti-thrombin III): 1.56 µM | Kd for anti-thrombin III (anti-thrombin III): 22 µg/mL
